According to patent publication US10350308B2, “Molecular probes for imaging myelin” (priority 2010, dated 2019):
“Also recorded” adds a separate entry of the source.

Legend:
[1] = tested on: myelin; test: In vivo NIRF imaging in hypermyelinated mouse model; design: species or system Plp-Akt-DD mice and wild-type mice; details: 0.1 mg/kg i.v.
Method: The in vivo Near-infrared fluorescence imaging was carried out using Xenogen IVIS Imaging System 200, (Caliper Life Science, Inc., Hopkinton, Mass.). To avoid the influence of the autofluorescence and light scattering due to the fur, all the mice were shaved before experiment. After the i.v. injection of CNIR 0.1 mg/kg, the mouse was anesthetized utilizing isoflurane gas, the mouse was positioned on the center of the stage (working temperature 20-40° C.). The Near-infrared images were acquired by Back-thinned, back-illuminated grade 1 CCD, which is thermoelectrically cooled to −90° C. ensuring low dark current and low noise. The fluorescent filter set for excitation was 705-780 nm, for emission was 810-885 nm. The experiments were controlled with Living Image 3.1 (Caliper Life Science. Inc., Hopkinton, Mass.). Lens: f/2. Field of view: 6.5 cm×6.5 cm. Imaging Pixels: 2048×2048. Exposure time: 0.5 s for all the images. The near-infrared images were evaluated by Living Image 3.1 (Caliper Life Science. Inc., Hopkinton, Mass.). All the images used photon as the unit for the quantification, and the images were shown as overlaid photograph with fluorescence. Statistical analysis was performed using two-tailed t-test with GraphPad Prism 5, (GraphPad Software, Inc., La Jolla, Calif.). CNIR (0.1 mg/kg) and vehicle (0.05% DMSO/PBS (V/V)) was first administered to the hypermyelinated mouse model through intravenous injected in the tail vein. The fluorescence signals were recorded at 2, 4, 6, 8, 10, 15, 20, 25, 30, 40, 50, 60, 70, 80, 90, 100, 110 and 120 min post injection. To exclude the influence of autofluorescence from the mouse tissues and impact from the solution, the vehicle (0.05% DMSO/PBS (V/V)) also injected and fluorescence was recorded at 2, 4, 6, 8, 10, 15, 20, 25, 30, 40, 50, 60, 70, 80, 90, 100, 110 and 120 min to compare with the CNIR solution (images not shown). […]

[2] = tested on: myelin; test: In vivo NIRF imaging in shiverer mouse model; design: species or system shiverer mice and wild-type mice; details: for fluorescent intensities in the brain, shiverer versus wild-type mice / time of peak fluorescent signal in shiverer mice / average radiance in wild-type mice relative to shiverer mice: 0.1 mg/kg i.v.; for time of peak fluorescent signal in shiverer mice: brain; for average radiance in wild-type mice relative to shiverer mice: at 30 minutes, after deducting vehicle signals
Method: We then evaluated the pharmacokinetic profiles of CNIR in 3-month old female shiverer mice (n=3) and age-matched wild-type mice (n=2). The in vivo NIR imaging was conducted using the same dosage as in the hypermyelinated mouse model. The fluorescent signals were recorded at 2, 4, 6, 8, 10, 15, 20, 25, 30, 40, 50, 60, 70, 80, 90, 100, 110 and 120 min after i.v. injection of CNIR and the vehicle (0.05% DMSO/PBS (V/V)).

[3] = tested on: myelin sheaths; test: In vitro fluorescent tissue staining of mouse brain sections; type: binding; details: compared with MBP antibody
[4] = Fluorescent excitation and emission spectra; type: physicochemical; details: 100 nM in DMSO
Method: The fluorescent excitation and emission spectrum is recorded using Varian fluorescent spectroscopy at the concentration of […] in DMSO.
The excitation and emission spectra of CNP were recorded using Cary Eclipse Fluorescence Spectrophotometers (Varian, Inc.; Palo Alto, Calif.) at 25° C. in DMSO, at a concentration of 100 nM. The excitation and emission slits were 5 nm, the scan rate was 600 nm/min, and the data interval was 1 nm.

[5] = Brain permeability by co-registration of fluorescent and X-ray images; type: in vivo; details: 0.1 mg/kg i.v., 20 minutes post injection, wild-type mice
Method: The fur of the mouse was shaved to avoid the problem of autofluorescence. 20 minutes after the i.v. injection of CNIR 0.1 mg/kg, the mouse was anesthetized utilizing isoflurane gas. The mouse was positioned on the center of the platen and imaged via fluorescence (ex 760 em 790) and X-ray. Vertical Resolution: 885 ppi, horizontal Resolution: 885 ppi. To determine the brain permeability of CNIR, we administered CNIR to wild-type mice through intravenous injection in tail vein. At 20 minutes post injection of CNIR (0.1 mg/kg), both X-ray and fluorescent images of the mouse brain were acquired using KODAK In-Vivo Multispectral System FX (FIG. 3). Co-registration of high quality X-ray image and fluorescent image confirmed that the strong fluorescence was indeed emitted from inside the brain.

[6] = tested on: MBP; test: CNP staining followed by MBP antibody staining in the same brain tissue sections; type: binding, mouse; details: cerebellum, frontal cortex, caudate putamen; CNP 1 mM
Method: After incubation with 3% normal goat serum in 1×PBS for 60 min, the fresh frozen sections were immunostained overnight at 4° C. with purified SMI99 mouse monoclonal anti-MBP (Covance, Inc. Princeton, N.J.) 1:500 dilution in 3% normal goat serum in 1×PBS, followed by one hour incubation at room temperature with Fluorescein (FITC) AffiniPure Goat Anti-Mouse IgG (H=L) (Jackson ImmunoResearch Laboratories, Inc. West Grove, Pa.) 1:500 dilution, then rinsed in 1×PBS (2×5′). The stained sections were covered with fluorescence mounting medium (Vectashield, Vector laboratories). Images of the stained mouse brain sections were acquired on a Leica DM5000 inverted microscope (L5 filter, BP 527/30).
(§1) Fresh frozen sections with 20 μm thickness were incubated in 0.1% Triton-100 in 1×PBS for 10 min, which was followed by incubation in a solution of CNP (1 mM) in 1% DMSO/1×PBS for 30 min at room temperature. The fresh frozen sections were then washed three times for 5 min each with 1×PBS before cover-slipping with fluorescence mounting medium (Vectashield, Vector laboratories). Images of the stained mouse brain sections were acquired on a Leica DMI5000 inverted microscope (Y5 filter, BP 700/75).
To determine the exact binding sites of CNP, we compared both CNP and MBP staining conducted in the same brain tissue sections. […]

[7] = tested on: LPC induced demyelination lesion; test: CNP staining of rat brain sections after imaging in the focal demyelination model; type: binding; details: LPC-rats versus saline-rats, compared with Black-Gold II
Method: Focal demyelination of adult rat brain. Sprague Dawley female rats (Harlan Laboratory, Indianapolis, Ind.), 12 weeks of age, were used for this study. Animal surgery and care was performed in accordance with the Institutional Animal Care and Use Committee of Case Western Reserve University Animals were anesthetized using a mixture of ketamine hydrochloride (64.2 mg/kg), xylazine hydrochloride (12.9 mg/kg), and acepromazine (12.9 mg/kg) and positioned in a stereotaxic frame (Stoelting). […]
Fresh frozen section: Mice or rats were deeply anesthetized with isoflurane and perfused via the ascending aorta with PBS followed by 4% paraformaldehyde in PBS. […] Tissue from the midline of the brain containing the whole corpus callosum was selected for staining Stained sections were covered with fluorescence mounting medium (Vectashield; Vector Laboratories, Burlingame, Calif.) and stored at 4° C. for future analysis.
as §1, with “Images of the stained mouse brain sections were acquired on a Leica DMI5000 inverted microscope (Y5 filter, BP 700/75).” left out

[8] = tested on: myelin; test: In vivo microPET-MR imaging in focal demyelination rat model
Method: Focal demyelination of adult rat brain. Sprague Dawley female rats (Harlan Laboratory, Indianapolis, Ind.), 12 weeks of age, were used for this study. Animal surgery and care was performed in accordance with the Institutional Animal Care and Use Committee of Case Western Reserve University Animals were anesthetized using a mixture of ketamine hydrochloride (64.2 mg/kg), xylazine hydrochloride (12.9 mg/kg), and acepromazine (12.9 mg/kg) and positioned in a stereotaxic frame (Stoelting). A small incision was made in the scalp, and the corpus callosum was targeted using the following stereotaxic coordinates, relative to bregma: anterior-posterior, 0.0 mm; medial-lateral, 2.0; and dorsal-ventral, 3.4. A small hole was drilled in the skull, and a 26 S gauge needle attached to a 10 μl Hamilton Syringe was lowered into the corpus callosum according to the dorsal-ventral coordinate. A microinjector pump (Stoelting) controlled the infusion of 6 μl of lysolethicin (lysophosphatidyl chorine) or saline at a rate of 0.25 μl/min, after which the needle was left in place for 2 min to prevent liquid reflux out of the brain parenchyma. The incision was then closed using 5-0 Ethicon sutures, and the animals were allowed to recover on a heating pad. The imaging of demyelination of the rats and vehicles were performed 5 d after surgery. The rats were kept alive.
Animals were placed in a Concord R4 microPET scanner (Knoxyille, Tenn.) under anesthesia. After a 10 min transmission scan with a Co-57 source, 7.4 MBq of [11C]DAS were administered to each animal through a tail vein injection, which was immediately followed by dynamic acquisition for up to 90 min. A 2-D filtered back projection (FBP) algorithm was used for image reconstruction with a 256×256 pixel resolution per transverse slice. A total of 63 transverse slices were reconstructed with the field of view covering the head of the animals. Decay correction, attenuation correction and scatter correction were all performed during the image histogram and reconstruction processes.
All MR imaging experiments were performed on a Bruker Biospec 7.0T/30 cm MRI and Spectroscopy scanner (Bruker Biospin, Billerica, Mass.). The animal's head was positioned in a 72-mm volume ID cylindrical transceiver coil. […]
Coregistration of MRI and PET images, PET and CT images were conducted by using the MATLAB-based program COMKAT (Compartmental Model Kinetic Analysis Tool). […] After creating uniform images from the PET and MRI images, VOI (Volume of interest) and ROI (Region of interest) were defined and used to measure the radioactivity concentration in the corpus callosums of both hypomyelinated and wild type mice. […]
The radioactivity was decay-corrected and normalized by the body weight of the mice and the amount of [^11C] […]

[9] = corpus callosum, 0-60 min microPET

Compound	fluorescent radiance / average fluorescent intensity in Plp-Akt-DD mice compared with wild-type mice ([1]; 2-120 min post injection)	clearance in wild-type control mice ([1]; brain fluorescence)	clearance in hypermyelinated (Plp-Akt-DD) mice ([1]; brain fluorescence, compared to WT)	fluorescent intensities in the brain, shiverer versus wild-type mice [2]	time of peak fluorescent signal in shiverer mice [2] [min]	average radiance in wild-type mice relative to shiverer mice [2]	labeling of myelin sheaths in wild-type mouse brain sections ([3]; 1 μM, free floating sections)	maximal emission wavelength [4] [nm]	maximal excitation wavelength [4] [nm]	brain permeability [5]	antibody staining of MBP after CNP staining of the same section [6]	detection of demyelination lesion in brain sections [7]	brain entry ([2]; summary statement at the head of Example 1)	labeling of myelin sheaths in wild-type mouse brain sections ([3]; 100 μM, fresh frozen sections)	labeling of myelin sheaths in wild-type and shiverer mouse brain sections ([3]; 1 mM, fresh frozen sections)	uptake in control rat brain compared with demyelinated rat brain ([8]; corpus callosum ROI, 60 min microPET scan)	average SUV in demyelinated region, lower than control myelinated region [8, 9] [%]	average SUV in demyelinated region, lower than remyelinated region [8, 9] [%]	localization in brain ([8]; white matter versus gray matter)
CCN1\C(=C/C=C/C=C/C=C/c2sc3ccccc3[n+]2CC)Sc2ccccc21.[I-] [CNIR, 3,3′Diethylthiatricarbocyanine iodide]	much stronger; also recorded: higher	fast clearance	relatively slower clearance	significant different	2	eightfold greater	selectively labeled intact myelin sheaths	797	782	can readily penetrate the intact blood-brain barrier	–	–	–	–	–	–	–	–	–
COc1cccc(CN2\C(=C/C=C/C=C/C=C/c3sc4ccccc4[n+]3Cc3cccc(OC)c3)Sc3ccccc32)c1.[Br-] [CNP]	–	–	–	significantly different	5	four fold greater	–	–	–	–	significantly blocked	can detect the LPC induced demyelination lesion	readily enters the brain	bind specifically to myelin sheaths	selectively labeled intact myelin sheaths	–	–	–	–
COc1cccc(C[n+]2c(/C=C/C=C/C=C/C=C3/Sc4ccccc4N3Cc3cccc(O[11CH3])c3)sc3ccccc32)c1 [[^11C] CNP]	–	–	–	–	–	–	–	–	–	–	–	–	–	–	–	significantly higher	40	20	preferentially localizes in the myelin-rich white matter
